Experimental findings from patent US20040121965A1, “Method of treating resistant tumors” (Wyeth Holdings Corporation, priority 2002, published 2004) are described below.

Broadly, the IC50 is the midpoint of a concentration-inhibition curve.

Where only a bound is given, the exact number is not on record here.

The subject of one test is KB-3-1. The experiment in a line: Cell survival assay (SRB), KB-3-1. To be noted: Homo sapiens, KB 3-1, KB-3-1 cells (paclitaxel-sensitive parent); read-out: In vitro IC50 (nM) KB-3-1. The format is cell-based, human. The text has this: Cells lines with previously known mechanisms of resistance. […] Res. 8: 207-218,1996); KB-3-1 (parental derived from an epidermoid carcinoma), KB-8.5, KB-V1 (Akiyama S-I, Fojo A, Hanover J A, Pastan I, Gottesman M M. Isolation and genetic characterization of human KB cell lines resistant to multiple drugs. Somatic Cell Mol. Gen., 11: 117-126,1985; Shen D-W, Cardarelli C, Hwang J, Cornwell M, Richert N, Ishii S, Pastan I, Gottesman MM. […] J. Biol. Chem., 261: 7762-7770, 1986); and HL-60 (parental derived from human leukemia) and HL60/AR (McGrath T., Center M. S. Adriamycin resistance in HL60 cells in the absence of detectable P-glycoprotein. Biochem. Res. Commun., 145:1171-1176,1987); A549 and A549.EpoB40 (He L., Yang C.-P.H., Horwitz S. B. Mutations in p-tubulin map to domains involved in regulation of microtubule stability in epothilone-resistant cell lines. Molecular Cancer Therapeutics. 1: 3-10, 2001). HCT-15 human colon carcinoma and DLD-1 human colon carcinoma are obtained from American Tissue Culture Collection. The MX-1W carcinoma is a Wyeth variant orginally obtained as MX-1 breast carcinoma from the National Cancer Institute. Cell lines selected for resistance to Representative Example 129. KB-3-1 cells are selected for resistance to Example 129 by chronically exposing cells to increasing concentrations of Example 129.
2.2. Cell Survival Assay: Standard Pharmacological Test Procedure. The concentration of candidate inhibitor required to inhibit 50% of cell growth (IC50) is done according to previously reported methods. […] Compounds are serially diluted into media as 2× stocks and 100 μl added to cells in duplicate. Compounds are incubated with cells for 3 days. At the end of the incubation period the sulforhodamine B (SRB) assay, which measures protein content as an assessment of cell survival, is performed as described previously (Skehan P, Storeng R, Scudiero D, Monks A, McMahon J, Vistica D, Warren J T, Bokesch H, Kenney S, Boyd MR. New calorimetric cytotoxicity assay for anticancer-drug screening. J Natl Cancer Inst 1990 Jul 4;82(13):1107-12) with some modification as follows. For KB-3-1 cells with 20% FCS, media is gently decanted and replaced with 200 μl of serum-free media mixed with cold 50% TCA for a final concentration of 10% TCA. The plates are incubated for 1 hr at 4° C., followed by washing 5 times in cold distilled water, then air dried overnight. The fixed cells are stained for 10 min with 80 μl of 0.04% SRB solution prepared in 1% glacial acetic acid. Stain is discarded and plates washed 5 times in 1% glacial acetic acid, then air-dried until completely dry. Stained cell product is dissolved in 150 μl of 10 mM Trizma Base and placed on a shaker for 20 minutes until fully dissolved. Absorbance is read on a Victor V multi-label plate reader (Perkin Elmer, Gaithersburg, Md.).

For the next test, the system named is KB-8-5 (MDR1+). The experiment in a line: Cell survival assay (SRB), KB-8-5 (MDR1+). The conditions noted are these: for IC50: Homo sapiens, MDR1, read-out: In vitro IC50 (nM) KB85.
The next test relates to KB-V1 (MDR1++). In words: Cell survival assay (SRB), KB-V1 (MDR1++). The conditions noted are these: for IC50: Homo sapiens, read-out: In vitro IC50 (nM) KBV1.

Take `CN[C@H](C(=O)N[C@H](C(=O)N(C)[C@H](/C=C(\C)C(=O)O)C(C)C)C(C)(C)C)C(C)(C)c1cc(C(F)(F)F)cc(C(F)(F)F)c1` [Example 66, N,β,β-trimethyl-3,5-bis(trifluoromethyl)-L-phenylalanyl-N^1-[(1S,2E)-3-carboxy-1-isopropylbut-2-enyl]-N^1,3-dimethyl-L-valinamide]: the half-inhibitory concentration (IC50) in the test with KB-3-1 is 17 nM. For the same compound, in the test on KB-8-5 (MDR1+), the “Ratio KB85/KB” value is listed as 1.1 and the IC50 came out at 19 nM. Further, in the test with KB-V1 (MDR1++), the “Ratio KBV1/KB” value is given as 26.9 and the half-maximal inhibitory concentration (IC50) came to 457 nM.

For `C/C(=C\[C@H](C(C)C)N(C)C(=O)[C@@H](NC(=O)[C@@H](N(C)CCO)C(C)(C)c1ccccc1)C(C)(C)C)C(=O)O` [Example 53, N-(2-hydroxyethyl)-N,β,β-trimethyl-L-phenylalanyl-N^1-[(1S,2E)-3-carboxy-1-isopropylbut-2-enyl]-N^1,3-dimethyl-L-valinamide], the 50% inhibitory concentration (IC50) with KB-3-1 came out at 44.7 nM. In the test on KB-8-5 (MDR1+), the “Ratio KB85/KB” value is listed as 1.4 and the concentration for half-maximal inhibition (IC50) worked out at 61.7 nM. For the same compound, in the test with KB-V1 (MDR1++), the “Ratio KBV1/KB” value was found to be 67.1 and the IC50 was at least 3000 nM.

For the compound `CN[C@H](C(=O)N[C@H](C(=O)N(C)[C@H](/C=C(\C)C(=O)NCCc1ccccc1)C(C)C)C(C)(C)C)C(C)(C)c1ccccc1` [Example 112, N,β,β-trimethyl-L-phenylalanyl-N^1-{(1S,2E)-1-isopropyl-3-methyl4-oxo4-[(2-phenylethyl)amino]but-2-enyl}-N^1,3-dimethyl-L-valinamide], the IC50 in the test on KB-3-1 worked out at 163 nM. Also, in the test on KB-8-5 (MDR1+), the “Ratio KB85/KB” value was 1.4 and the 50% inhibitory concentration (IC50) came to 226 nM. Further, in the test on KB-V1 (MDR1++), the “Ratio KBV1/KB” value came to 10.8 and the half-maximal inhibitory concentration (IC50) amounted to 1770 nM.

As for `CCOC(=O)/C(C)=C/[C@H](C(C)C)N(C)C(=O)[C@@H](NC(=O)[C@@H](NC)C(C)(C)c1ccccc1OC)C(C)(C)C` [Example 54, 2-Methoxy-N,β,β-trimethyl-L-phenylalanyl-N^1-[(1S,2E)-4-ethoxy-1-isopropyl-3-methyl-4-oxo-2-butenyl]-N^1,3-dimethyl-L-valinamide], the IC50 is 126 nM in the test with KB-3-1, 602 nM in the test on KB-8-5 (MDR1+) and 2090 nM with KB-V1 (MDR1++). Further, the “Ratio KB85/KB” value in the test on KB-8-5 (MDR1+) was found to be 4.8. Besides, the “Ratio KBV1/KB” value in the test on KB-V1 (MDR1++) is 16.6.

For the compound `CN[C@H](C(=O)N[C@H](C(=O)N(C)[C@H](/C=C(\C)C(=O)O)C(C)C)[C@H](C)O)C(C)(C)c1ccccc1` [Example 86, N,β,β-trimethyl-L-phenylalanyl-N^1-[(1S,2E)-3-carboxy-1-isopropyl-2-butenyl]-N^1-methyl-L-allothreoninamide], the IC50 with KB-3-1 was 311 nM. For the same compound, in the test with KB-8-5 (MDR1+), the “Ratio KB85/KB” value is reported as 2.2 and the IC50 was 669 nM. In the test on KB-V1 (MDR1++), the “Ratio KBV1/KB” value is given as 9.7 and the IC50 was at least 3000 nM.

As for `CCOC(=O)/C(C)=C/[C@H](C(C)C)N(C)C(=O)[C@@H](NC(=O)[C@@H](NC)C(C)(C)c1ccc(C)cc1)C(C)(C)C` [Example 10a, N,β,β,4-Tetramethyl-L-phenylalanyl-N^1-[(1S,2E)-4-ethoxy-1-isopropyl-3-methyl4-oxo-2-butenyl]-N^1,3-dimethyl-L-valinamide], the 50% inhibitory concentration (IC50) with KB-3-1 stood at 33.9 nM. Also, in the test on KB-8-5 (MDR1+), the “Ratio KB85/KB” value worked out at 15.5 and the 50% inhibitory concentration (IC50) is 525 nM. Besides, in the test with KB-V1 (MDR1++), the “Ratio KBV1/KB” value turned out to be 52.4 and the IC50 was 1780 nM.

As to `CN[C@@H](C(=O)N[C@H](C(=O)N(C)[C@H](/C=C(\C)C(=O)O)C(C)C)C(C)(C)C)C(C)(C)c1cccc(Cl)c1` [Example 3, 3-Chloro-N,β,β-trimethyl-D-phenylalanyl-N^1-[(1S,2E)-3-carboxy-1-isopropyl-2-butenyl]-N^1,3-dimethyl-L-valinamide], the values for the half-maximal inhibitory concentration (IC50) in the test on KB-3-1, with KB-8-5 (MDR1+) and in the test on KB-V1 (MDR1++) were 15.1 nM, 20 nM and 1150 nM, respectively. For the same compound, the “Ratio KB85/KB” value in the test on KB-8-5 (MDR1+) is 1.3. Further, the “Ratio KBV1/KB” value in the test with KB-V1 (MDR1++) came out at 76.0.

`CN[C@H](C(=O)N[C@H](C(=O)N(C)[C@H](/C=C(\C)C(=O)O)C(C)C)C(C)(C)C)C(C)(C)c1cccc(OC)c1` [Example 46, 3-Methoxy-N,β,β-trimethylphenylalanyl-N^1-[(1S,2E)-3-carboxy-1-isopropyl-2-butenyl]-N^1,3-dimethyl-L-valinamide]: the IC50 in the test on KB-3-1 stood at 3.5 nM. In the test on KB-8-5 (MDR1+), the “Ratio KB85/KB” value stood at 1.7 and the half-inhibitory concentration (IC50) was 5.9 nM. For the same compound, in the test on KB-V1 (MDR1++), the “Ratio KBV1/KB” value was determined as 64.0 and the IC50 amounted to 224 nM.

With `CN[C@H](C(=O)N[C@@H](Cc1ccccc1)C(=O)N(C)[C@H](/C=C(\C)C(=O)O)C(C)C)C(C)(C)c1ccccc1` [Example 137, (E,4S)-2,5-dimethyl4-[methyl((2S)-2-{[(2S)-3-methyl-2-(methylamino)-3-phenylbutanoyl]amino}-3-phenylpropanoyl)amino]-2-hexenoic Acid], the IC50 in the test on KB-3-1 was 934 nM. In addition, in the test with KB-8-5 (MDR1+), the “Ratio KB85/KB” value stood at 1.7 and the 50% inhibitory concentration (IC50) worked out at 1580 nM. In the test with KB-V1 (MDR1++), the “Ratio KBV1/KB” value came to 3.2 and the IC50 is at least 3000 nM.

Take `C/C(=C\[C@H](C(C)C)N(C)C(=O)[C@@H](NC(=O)[C@@H](N)Cc1cccc2ccccc12)C(C)(C)C)C(=O)O` [Example 130, (2E,4S)-4-[((2S)-2-{[(2S)-2-Amino-3-(1-naphthyl)propanoyl]amino}-3,3-dimethylbutanoyl)(methyl)amino]-2,5-dimethyl-2-hexenoic Acid]: the IC50 in the test on KB-3-1 came out at 60.2 nM. Also, in the test on KB-8-5 (MDR1+), the “Ratio KB85/KB” value came out at 1.4 and the IC50 was 87 nM. In the test with KB-V1 (MDR1++), the “Ratio KBV1/KB” value is reported as 49.8 and the IC50 is at least 3000 nM.

Regarding `CCOC(=O)/C(C)=C/[C@H](C(C)C)N(C)C(=O)[C@@H](NC(=O)[C@@H](NC)C(C)(C)c1cc2ccccc2s1)C(C)(C)C` [Example 27, 3-(1-Benzothien-2-yl)-N-methylvalyl-N^1-[(1S,2E)4-ethoxy-1-isopropyl-3-methyl4-oxo-2-butenyl]-N^1,3-dimethyl-L-valinamide], the half-maximal inhibitory concentration (IC50) with KB-3-1 amounted to 331 nM. Also, in the test on KB-8-5 (MDR1+), the “Ratio KB85/KB” value worked out at 4.8 and the IC50 worked out at 1580 nM. Further, in the test with KB-V1 (MDR1++), the “Ratio KBV1/KB” value was 9.1 and the IC50 was at least 3000 nM.

Regarding `CN[C@H](C(=O)N[C@H](C(=O)N(C)[C@H](/C=C(\C)C(=O)Nc1ccc(N=[N+]=[N-])cc1)C(C)C)C(C)(C)C)C(C)(C)c1ccccc1` [Example 111, N,β,β-trimethyl-L-phenylalanyl-N^1-{(1S,2E)-4-[(4-azidophenyl)amino]-1-isopropyl-3-methyl-4-oxo-2-butenyl}-N^1,3-dimethyl-L-valinamide], the values for the IC50 in the test with KB-3-1, with KB-8-5 (MDR1+) and in the test on KB-V1 (MDR1++) were 178 nM, 513 nM and 2240 nM, respectively. Further, in the test with KB-8-5 (MDR1+), the “Ratio KB85/KB” value amounted to 2.9. The “Ratio KBV1/KB” value in the test on KB-V1 (MDR1++) worked out at 12.6.

As to `CCC(CC)(c1ccccc1)[C@H](NC)C(=O)N[C@H](C(=O)N(C)[C@H](/C=C(\C)C(=O)O)C(C)C)C(C)(C)C` [Example 125, β,β-diethyl-N-methyl-L-phenylalanyl-N^1-[(1S,2E)-3-carboxy-1-isopropylbut-2-enyl]-N^1,3-dimethyl-L-valinamide], in the test on KB-3-1, the IC50 is 8.5 nM. Moreover, in the test with KB-8-5 (MDR1+), the “Ratio KB85/KB” value is 2.1 and the half-maximal inhibitory concentration (IC50) amounted to 18 nM. Further, in the test on KB-V1 (MDR1++), the “Ratio KBV1/KB” value came to 56.4 and the 50% inhibitory concentration (IC50) came to 479 nM.
